US8921546B2, “Imidazolothiazole compounds for the treatment of disease” (Ambit Biosciences Corporation, priority 2006, dated 2014)
Where a name gives a salt, the structure may show the parent alone. Read-outs that look alike come from different tables or passages of the source.

Legend:
MV4-11 cells = assay: Cellular proliferation assay (MTS), MV4-11; assay type: cell-based; settings: Homo sapiens
Excerpt: Cellular Proliferation Assay
Cancer cell viability and proliferation can be evaluated using a tetrazolium salt reduction cell-based assay. In viable cells, this colorimetric assay can measure mitochondrial reduction of a tetrazolium component (MTS) into an […] formazan product.
This cell line was used to determine the ability of the compounds provided herein to inhibit Flt3 in intact cells. The RS4-11 cell line, which expresses the wild-type (WT) receptor, is also used as a control to verify the test compound's ability to inhibit the FLT3 receptor containing the ITD mutation.
MV4-11 cells were plated at 10,000 cells per well in DMEM medium with 0.5% serum. RS4-11 cells were plated at 20,000 cells per well in RPMI with 0.5% serum. […] An aliquot from each well of the compound plate was transferred to the plated cells and then incubated @ 37° C. in 5% CO2 (for 3 days for the MV4-11 cells, 2 days for the RS4-11 cells).
MTS tetrazolium compound (Owen's reagent) was thawed in a H2O bath. 20 μl of MTS tetrazolium was added to each well of optical plate and the cells were incubated @ 37° C. in 5% CO2 for 2 hours.

FLT3 = molecular target: T1, FLT3 (Homo sapiens, UniProt P36888); assay: Binding constant (Kd) measurement, phage-displayed kinase competition binding assay, FLT3
T1 construct: made in house
T1 sequence (P36888 27-993): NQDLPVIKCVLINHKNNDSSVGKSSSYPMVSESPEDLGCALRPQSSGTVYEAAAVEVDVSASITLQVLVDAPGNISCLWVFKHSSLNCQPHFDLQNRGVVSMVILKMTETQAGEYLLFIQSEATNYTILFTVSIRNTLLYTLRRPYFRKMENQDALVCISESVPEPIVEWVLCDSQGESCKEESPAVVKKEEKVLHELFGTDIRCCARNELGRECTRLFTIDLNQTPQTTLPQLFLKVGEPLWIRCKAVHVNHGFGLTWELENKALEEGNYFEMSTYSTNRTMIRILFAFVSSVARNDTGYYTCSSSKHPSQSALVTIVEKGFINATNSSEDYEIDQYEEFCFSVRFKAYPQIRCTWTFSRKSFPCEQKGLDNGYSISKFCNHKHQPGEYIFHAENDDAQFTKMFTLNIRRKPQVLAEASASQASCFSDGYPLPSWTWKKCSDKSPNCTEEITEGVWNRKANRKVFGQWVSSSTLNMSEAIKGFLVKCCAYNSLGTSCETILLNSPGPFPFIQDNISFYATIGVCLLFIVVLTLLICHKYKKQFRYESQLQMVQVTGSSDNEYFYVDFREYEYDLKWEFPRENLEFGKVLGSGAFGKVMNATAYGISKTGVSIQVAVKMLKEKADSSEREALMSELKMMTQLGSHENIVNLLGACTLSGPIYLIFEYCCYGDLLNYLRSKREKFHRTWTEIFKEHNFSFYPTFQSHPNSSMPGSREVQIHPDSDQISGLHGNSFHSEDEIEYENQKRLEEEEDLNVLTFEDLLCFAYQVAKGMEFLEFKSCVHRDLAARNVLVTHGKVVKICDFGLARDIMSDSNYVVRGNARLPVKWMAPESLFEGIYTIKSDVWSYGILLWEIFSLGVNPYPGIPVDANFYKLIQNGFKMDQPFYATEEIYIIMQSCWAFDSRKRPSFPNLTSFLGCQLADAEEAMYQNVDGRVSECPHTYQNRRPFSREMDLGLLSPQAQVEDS
Protocol: (§1) Binding Constant (Kd) Measurements for Small-Molecule-Kinase Interactions
(§2) By testing across a large class of protein kinases, specificity of the kinase inhibitors provided herein is also determined. The components of the assays include various human kinases expressed as fusions to T7 bacteriophage particles and immobilized ligands that bind to the ATP site of the kinases. […] If the test compound binds the kinase, it competes with the immobilized ligand and prevents binding to the solid support. […] The results are read out by quantitating the amount of fusion protein bound to the solid support, which is accomplished by either traditional phage plaque assays or by quantitative PCR (qPCR) using the phage genome as a template.

CSF1R = molecular target: T2, CSF1R (Homo sapiens, UniProt P07333); assay: Binding constant (Kd) measurement, phage-displayed kinase competition binding assay, CSF1R
T2 construct: made in house
Protocol: as §1, §2

KIT = molecular target: T3, KIT (Homo sapiens, UniProt P10721); assay: Binding constant (Kd) measurement, phage-displayed kinase competition binding assay, KIT
T3 construct: made in house
Protocol: as §1, §2

[1] = MV4-11 cells, 72 hour incubation, MTS, read-out: Cellular Assay MV-proliferation IC50
[2] = read-out: Binding Assay FLT3 Kd

T2 sequence (P07333 20-972): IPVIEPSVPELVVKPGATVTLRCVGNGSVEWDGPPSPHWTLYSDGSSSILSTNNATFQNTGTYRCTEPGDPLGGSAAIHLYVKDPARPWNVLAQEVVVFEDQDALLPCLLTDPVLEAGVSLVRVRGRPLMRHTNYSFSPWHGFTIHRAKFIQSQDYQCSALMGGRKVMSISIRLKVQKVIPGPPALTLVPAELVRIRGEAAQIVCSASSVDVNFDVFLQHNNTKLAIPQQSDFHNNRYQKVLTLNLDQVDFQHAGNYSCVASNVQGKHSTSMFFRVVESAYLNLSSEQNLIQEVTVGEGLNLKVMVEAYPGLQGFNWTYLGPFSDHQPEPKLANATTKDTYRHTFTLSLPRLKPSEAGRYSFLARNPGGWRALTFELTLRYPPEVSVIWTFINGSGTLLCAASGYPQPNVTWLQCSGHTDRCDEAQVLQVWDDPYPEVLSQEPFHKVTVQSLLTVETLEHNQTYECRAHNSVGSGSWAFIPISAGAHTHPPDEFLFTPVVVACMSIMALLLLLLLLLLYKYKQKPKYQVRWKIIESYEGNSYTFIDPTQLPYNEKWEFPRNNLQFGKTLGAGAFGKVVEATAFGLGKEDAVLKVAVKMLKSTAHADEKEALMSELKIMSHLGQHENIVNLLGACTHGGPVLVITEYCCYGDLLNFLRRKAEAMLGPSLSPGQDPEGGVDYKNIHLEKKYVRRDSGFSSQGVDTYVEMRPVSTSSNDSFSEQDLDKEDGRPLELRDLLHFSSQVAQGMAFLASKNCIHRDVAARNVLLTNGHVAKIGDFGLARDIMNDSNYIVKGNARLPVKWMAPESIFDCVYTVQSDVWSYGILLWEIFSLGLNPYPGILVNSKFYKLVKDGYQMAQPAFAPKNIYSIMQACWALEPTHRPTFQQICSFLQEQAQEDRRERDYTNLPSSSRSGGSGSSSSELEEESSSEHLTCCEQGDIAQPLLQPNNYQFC
T3 sequence (P10721 26-976): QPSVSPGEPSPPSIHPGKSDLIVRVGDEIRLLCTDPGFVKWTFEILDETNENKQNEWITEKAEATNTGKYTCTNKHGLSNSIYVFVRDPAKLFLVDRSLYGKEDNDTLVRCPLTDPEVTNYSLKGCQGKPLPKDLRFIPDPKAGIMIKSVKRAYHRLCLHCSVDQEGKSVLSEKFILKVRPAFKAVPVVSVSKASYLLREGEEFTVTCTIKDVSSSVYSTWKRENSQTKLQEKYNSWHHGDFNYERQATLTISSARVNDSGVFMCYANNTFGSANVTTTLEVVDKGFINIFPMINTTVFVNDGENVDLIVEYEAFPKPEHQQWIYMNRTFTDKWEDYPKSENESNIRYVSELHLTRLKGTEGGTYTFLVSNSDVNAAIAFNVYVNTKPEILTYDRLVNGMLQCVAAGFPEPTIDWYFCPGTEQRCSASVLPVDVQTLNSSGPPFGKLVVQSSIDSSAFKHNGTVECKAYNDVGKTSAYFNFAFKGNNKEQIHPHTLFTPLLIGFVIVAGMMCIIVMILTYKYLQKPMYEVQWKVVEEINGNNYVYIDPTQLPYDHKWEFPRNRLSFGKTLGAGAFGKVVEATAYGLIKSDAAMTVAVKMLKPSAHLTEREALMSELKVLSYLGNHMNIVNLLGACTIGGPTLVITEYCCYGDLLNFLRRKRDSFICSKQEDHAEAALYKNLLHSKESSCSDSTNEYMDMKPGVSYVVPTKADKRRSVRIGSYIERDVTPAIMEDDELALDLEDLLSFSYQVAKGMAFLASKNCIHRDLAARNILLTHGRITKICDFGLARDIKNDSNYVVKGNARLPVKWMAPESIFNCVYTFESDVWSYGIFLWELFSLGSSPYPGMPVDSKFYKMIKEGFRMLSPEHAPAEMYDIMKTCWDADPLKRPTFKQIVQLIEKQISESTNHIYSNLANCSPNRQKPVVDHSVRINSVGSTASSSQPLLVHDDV

| SMILES | IC50 (MV4-11 cells; [1]) | Kd (FLT3) | Kd (CSF1R) | Kd (KIT) | IC50 (MV4-11 cells; MV4-11, 72 h, read-out: Cellular Assay MV-proliferation IC50 (nM)) | Kd (FLT3; [2]) |
| --- | --- | --- | --- | --- | --- | --- |
| CCN(CC)CCNC(=O)CCc1ccc2c(c1)sc1nc(-c3ccc(NC(=O)Nc4cc(C(C)(C)C)on4)cc3)cn12 [Compound C12, 3-(2-{4-[3-(5-tert-butyl-isoxazol-3-yl)-ureido]-phenyl}-benzo[d]imidazo[2,1-b]thiazol-7-yl)-N-(2-diethylamino-ethyl)-propionamide hydrochloride] | < 10 nM | < 10 nM | 10 to 100 nM | < 10 nM | – | – |
| CC(C)(C)c1cc(NC(=O)Nc2ccc(-c3cn4c(n3)sc3cc(CC(=O)NCCN5CCOCC5)ccc34)cc2)no1 [Compound C13, 2-(2-{4-[3-(5-tert-butyl-isoxazol-3-yl)-ureido]-phenyl}-benzo[d]imidazo[2,1-b]thiazol-7-yl)-N-(2-morpholin-4-yl-ethyl)-acetamide hydrochloride] | < 10 nM | < 10 nM | 10 to 100 nM | < 10 nM | – | – |
| CC(C)(C)c1cc(NC(=O)Nc2ccc(-c3cn4c(n3)sc3cc(CC(=O)NCCN5CCCCC5)ccc34)cc2)no1 [Compound C14, 2-(2-{4-[3-(5-tert-butyl-isoxazol-3-yl)-ureido]-phenyl}-benzo[d]imidazo[2,1-b]thiazol-7-yl)-N-(2-piperidin-1-yl-ethyl)-acetamide hydrochloride] | < 10 nM | < 10 nM | 10 to 100 nM | < 10 nM | – | – |
| CC(C)(C)c1cc(NC(=O)Nc2ccc(-c3cn4c(n3)sc3cc(CC(=O)N5CCOCC5)ccc34)cc2)no1 [Compound C18, 1-(5-tert-butyl-isoxazol-3-yl)-3-{4-[7-(2-morpholin-4-yl-2-oxo-ethyl)-imidazo[2,1-b][1,3]benzothiazol-2yl]-phenyl}-urea] | < 10 nM | < 10 nM | 10 to 100 nM | < 10 nM | – | – |
| CC(C)(C)c1cc(NC(=O)Nc2ccc(-c3cn4c(n3)sc3cc(C(=O)NCCN5CCCC5)ccc34)cc2)no1 [Compound C21, 2-{4-[3-(5-tert-butyl-isoxazol-3-yl)-ureido]-phenyl}-imidazo[2,1-b][1,3]benzothiazole-7-carboxylic Acid (2-Pyrrolidin-1-yl-ethyl)-amide hydrochloride] | < 10 nM | < 10 nM | 10 to 100 nM | < 10 nM | – | – |
| CCN(CC)CCNC(=O)c1ccc2c(c1)sc1nc(-c3ccc(NC(=O)Nc4cc(C(C)(C)C)on4)cc3)cn12 [Compound C22, 2-{4-[3-(5-tert-butyl-isoxazol-3-yl)-ureido]-phenyl}-imidazo[2,1-b][1,3]benzothiazole-7-carboxylic acid (2-diethylamino-ethyl)-amide hydrochloride] | < 10 nM | < 10 nM | 10 to 100 nM | < 10 nM | – | – |
| CCN1CCN(C(=O)c2ccc3c(c2)sc2nc(-c4ccc(NC(=O)Nc5cc(C(C)(C)C)on5)cc4)cn23)CC1 [Compound C23, 1-(5-tert-butyl-isoxazol-3-yl)-3-{4-[7-(4-ethyl-piperazine-1-carbonyl)-imidazo[2,1-b][1,3]benzothiazol-2-yl]-phenyl}-urea hydrochloride] | – | – | 10 to 100 nM | < 10 nM | < 10 nM | < 10 nM |
| CC(C)(C)c1cc(NC(=O)Nc2ccc(-c3cn4c(n3)sc3cc(C(=O)N5CCNCC5)ccc34)cc2)no1 [Compound C24, 1-(5-tert-butyl-isoxazol-3-yl)-3-{4-[7-(piperazine-1-carbonyl)-imidazo[2,1-b][1,3]benzothiazol-2-yl]-phenyl}-urea hydrochloride] | < 10 nM | < 10 nM | 10 to 100 nM | < 10 nM | – | – |
| CN1CCN(C(=O)c2ccc3c(c2)sc2nc(-c4ccc(NC(=O)Nc5cc(C(C)(C)C)on5)cc4)cn23)CC1 [Compound C25, 1-(5-tert-butyl-isoxazol-3-yl)-3-{4-[7-(4-methyl-piperazine-1-carbonyl)-imidazo[2,1-b][1,3]benzothiazol-2-yl]-phenyl}-urea hydrochloride] | < 10 nM | < 10 nM | 10 to 100 nM | < 10 nM | – | – |
| CCOC(=O)c1ccc2c(c1)sc1nc(-c3ccc(NC(=O)Nc4cc(C(C)(C)C)on4)cc3)cn12 [Compound C26, 2-{4-[3-(5-tert-Butyl-isoxazol-3-yl)-ureido]-phenyl}-imidazo[2,1-b][1,3]benzothiazole-7-carboxylic acid ethyl ester] | < 10 nM | < 10 nM | 100 to 1000 nM | 10 to 100 nM | – | – |
| CC(C)(C)c1cc(NC(=O)Nc2ccc(-c3cn4c(n3)sc3cc(C(=O)O)ccc34)cc2)no1 [Compound C27, Sodium 2-{4-[3-(5-tert-butyl-isoxazol-3-yl)-ureido]-phenyl}-benzo[d]imidazo[2,1-b]thiazole-7-carboxylate] | < 10 nM | – | 10 to 100 nM | < 10 nM | – | < 10 nM |
| CN(C(=O)Nc1cc(C(C)(C)C)on1)c1ccc(-c2cn3c(n2)sc2cc(CCCN4CCOCC4)ccc23)cc1 [Compound D2, 3-(5-tert-Butyl-isoxazol-3-yl)-1-methyl-1 {4-[7-(3-morpholin-4-yl-propyl)-benzo[d]imidazo[2,1-b]thiazol-2-yl]-phenyl}-urea] | 10 to 100 nM | – | 10 to 100 nM | < 10 nM | – | 10 to 100 nM |
| CC(C)(C)c1cc(NC(=O)Nc2ccc(-c3cn4c(n3)sc3cc(CCCN5CCOCC5)ccc34)cc2)no1 [Compound D3, 1-(5-tert-Butyl-isoxazol-3-yl)-3-{4-[7-(3-morpholin-4-yl-propyl)-benzo[d]imidazo[2,1-b]thiazol-2-yl]-phenyl}-urea] | < 10 nM | – | 10 to 100 nM | < 10 nM | – | < 10 nM |
| CC(C)(C)c1cc(NC(=O)Nc2ccc(-c3cn4c(n3)sc3cc(CCCN5CCCCC5)ccc34)cc2)no1 [Compound D4, N-(5-tert-Butyl-isoxazol-3-yl)-N′-{4-[7-(3-piperidin-1-yl-propyl)imidazo[2,1-b][1,3]benzothiazol-2-yl]phenyl}urea hydrochloride] | < 10 nM | < 10 nM | 10 to 100 nM | 10 to 100 nM | – | – |
| CC(C)(C)c1cc(NC(=O)Nc2ccc(-c3cn4c(n3)sc3cc(CCN5CCOCC5)ccc34)cc2)no1 [Compound D5, 1-(5-tert-Butyl-isoxazol-3-yl)-3-{4-[7-(2-morpholin-4-yl-ethyl)-imidazo[2,1-b][1,3]benzothiazol-2-yl]-phenyl}-urea hydrochloride] | < 10 nM | < 10 nM | < 10 nM | < 10 nM | – | – |
| CC(C)(C)c1cc(NC(=O)Nc2ccc(-c3cn4c(n3)sc3cc(CCN5CCCCC5)ccc34)cc2)no1 [Compound D6, 1-(5-tert-Butyl-isoxazol-3-yl)-3-{4-[7-(2-piperidin-1-yl-ethyl)-imidazo[2,1-b][1,3]benzothiazol-2-yl]-phenyl}urea hydrochloride] | < 10 nM | < 10 nM | < 10 nM | < 10 nM | – | – |
| CCN1CCN(CCc2ccc3c(c2)sc2nc(-c4ccc(NC(=O)Nc5cc(C(C)(C)C)on5)cc4)cn23)CC1 [Compound D7, 1-(5-tert-Butyl-isoxazol-3-yl)-3-(4-{7-[2-(4-ethyl-piperazin-1-yl)-ethyl]-imidazo[2,1-b][1,3]benzothiazol-2-yl}-phenyl)-urea hydrochloride] | < 10 nM | < 10 nM | < 10 nM | < 10 nM | – | – |
